Patent US10980239B2, “Decontamination solution and its use for denaturation, modification, degradation, solubilisation and removal of proteins, nucleic acid molecules and microorganisms” (MULTIBIND BIOTEC GMBH, priority 2005, dated 2021)

Legend:
Assay type in all cases: cell-based
[1] = test system: recombinant Escherichia coli strain with an extra-chromosomal plasmid (YEp351); assay: Degradation of genomic DNA and extra-chromosomal genetic material inside microorganisms (FIG. 8, gel electrophoresis); conditions: 5 μl E. coli suspension, lysozyme 5 minutes, then 5 μl solution for 5 minutes
Method: A recombinant Escherichia coli strain with an extra-chromosomal plasmid (YEp351) was grown over night in LB, amp medium. Aliquots of 5 μl from the E. coli suspension were treated with 5 μl lysozyme solution (1 mg/ml) for 5 minutes and subsequently incubated with 5 μl of the listed solutions (1-5) for additional 5 minutes. After addition of bromphenol blue the samples were loaded into the gel slots and separated by electrophoresis of the DNA molecules.
(M: Marker 1 Kb Ladder; C: Control with H2O; 1: 70% Ethanol; 2: 0.5% Bacillozid™; 3: 0.5% SDS; 4: 0.5% Na-Azide+0.5% SDS; 5: 100 mM vitamin C+10 mM FeCl3+0.5% SDS; C: Control: 5 μl sterile H2O)

Saccharomyces cerevisiae = assay: Test for the anti-microbial action, colony count after plating; conditions: 10^6 cells in 50 μl mixed 1:1 with solution, 2 minutes incubation, plated, 1-3 days at 28° C.
Method: (§1) Freshly grown cultures of the listed microorganisms were adjusted to a cell number of 10^6 in a 50 μl volume and mixed in a ratio of 1:1 with 50 μl of water, 70% ethanol or the three component system (100 mM ascorbic acid, 10 mM FeCl3 and 0.5% SDS). After an incubation time of 2 minutes the 100 μl samples containing the microorganisms were plated onto the respective growth media. After an incubation period of 1-3 days at 28° C. (Saccharomyces cerevisiae and Candida parapsilosis) or 37° C. (Escherichia coli and Bacillus subtilis) the number of grown colonies was determined.

Bacillus subtilis = assay: as above; conditions: 10^6 cells in 50 μl mixed 1:1 with solution, 2 minutes incubation, plated, 1-3 days at 37° C.
Method: as §1

Escherichia coli = assay: as above; conditions: 10^6 cells in 50 μl mixed 1:1 with solution, 2 minutes incubation, plated, 1-3 days at 37° C.
Method: as §1

[2] = test system: listed microorganisms (Escherichia coli, Bacillus subtilis, Saccharomyces cerevisiae, Candida parapsilosis); assay: Test for the anti-microbial action, summary for all listed microorganisms; conditions: 10^6 cells mixed 1:1 with solution, 2 minutes incubation, plated, 1-3 days
Method: as §1

| Compound | effect on cells and DNA molecules seen in the gel [1] | number of grown colonies (Saccharomyces cerevisiae) | number of grown colonies (Bacillus subtilis) | number of grown colonies (Escherichia coli) | living cell colonies, all listed microorganisms [2] |
| --- | --- | --- | --- | --- | --- |
| CCCCCCCCCCCCOS(=O)(=O)[O-].[Na+] [sample 3, Sodiumdodecylsulfate] | lysis of the cells is observed |  |  |  |  |
| CCO [70% ethanol, ethanol] | precipitation of the lysate and the DNA | 0 | 0 | 0 | did not show any living cell colony |
